Measurements reported in US11319305B2, “Pyrimidine sulfamide derivative and preparation method and medical application thereof” (SHIJIAZHUANG SAGACITY NEW DRUG DEVELOPMENT CO., LTD., priority 2017, dated 2022).

Target: T1, CYP1A2 (Homo sapiens, UniProt P05177)
T1 construct: Mixed human liver microsomes (HLM) were purchased from Corning Inc; tissue Corning Inc; host or cells: pooled human liver microsomes
T1 sequence (P05177 1-516): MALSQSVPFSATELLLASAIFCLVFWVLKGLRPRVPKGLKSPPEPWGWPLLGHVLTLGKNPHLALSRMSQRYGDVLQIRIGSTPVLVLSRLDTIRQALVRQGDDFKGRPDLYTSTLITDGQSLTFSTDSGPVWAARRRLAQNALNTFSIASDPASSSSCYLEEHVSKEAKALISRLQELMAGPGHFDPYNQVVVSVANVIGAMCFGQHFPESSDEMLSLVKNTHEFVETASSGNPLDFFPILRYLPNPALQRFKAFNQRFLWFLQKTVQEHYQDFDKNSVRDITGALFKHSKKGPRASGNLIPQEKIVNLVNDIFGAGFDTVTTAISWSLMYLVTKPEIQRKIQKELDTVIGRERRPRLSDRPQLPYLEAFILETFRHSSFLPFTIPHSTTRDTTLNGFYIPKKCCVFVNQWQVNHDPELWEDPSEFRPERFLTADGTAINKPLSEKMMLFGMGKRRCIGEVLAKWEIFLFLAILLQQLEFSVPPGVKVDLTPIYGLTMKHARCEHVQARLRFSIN
Assay: Human liver microsomal cytochrome P450 isozyme inhibition assay, CYP1A2
Format: in vitro ADME
Conditions: human liver microsomes
Description: Experimental Embodiment 4: Human Liver Microsomal Cytochrome P450 Isozyme Inhibition Assay The purpose of the assay was to evaluate the inhibitory activity of the samples against human liver microsomal cytochrome P450 isozyme (CYP1A2, CYP2C9, CYP2C19, CYP2D6 and CYP3A4) using the 5-in-1 probe substrate of the CYP isozyme. Mixed human liver microsomes (HLM) were purchased from Corning Inc. (Steuben, N.Y., USA) and stored below −80° C. before use. The test compound working solution which has been diluted into serial concentrations was added to an incubation system containing human liver microsomes, probe substrates and circulating system cofactors, and a control containing solvent without the test compound was used as the enzyme activity control (100%). The concentration of the metabolite produced by the probe substrate in the sample was determined using a liquid chromatography-tandem mass spectrometry (LC-MS/MS) method. Nonlinear regression analysis was performed on the average percent activity versus concentration of subjects using SigmaPlot (V.11). The IC50 value was calculated by a three-parameter or four-parameter inverse-logarithmic equation.

IC50: 47 µM
Compound: COCCNS(=O)(=O)Nc1ncnc(OCCOc2ncc(Br)cn2)c1-c1ccc2c(c1)OCO2 [WX013]
